Results: the CheMixHub ionic liquid set
± gives the uncertainty stated by the source.

Assay: xn = mol fraction of the nth substance listed
Conditions: for viscosity: 100 kPa; for electrical conductivity: 101 kPa

CC(=O)[O-].CCCC[N+](CCCC)(CCCC)CCCC + CCCCCCCCCCCC[N+](C)(C)C.[Br-] + O
viscosity [mPa·s]
Conditions | x2 = 5.421e-05, x1 = 0.0001802 | x2 = 0.0001084, x1 = 0.0001801 | x2 = 0.0001626, x1 = 0.0001801 | x2 = 0.0002168, x1 = 0.0001801 | x2 = 0.000271, x1 = 0.0001801 | x2 = 0.0003252, x1 = 0.0001801 | x2 = 0.0003793, x1 = 0.0001801 | x2 = 0.0004335, x1 = 0.0001801 | x2 = 0.0004877, x1 = 0.0001801 | x2 = 0.0005418, x1 = 0.0001801
293.15 K | 1.029 ± 0.029 | 1.031 ± 0.029 | 1.032 ± 0.029 | 1.033 ± 0.029 | 1.034 ± 0.029 | 1.034 ± 0.029 | 1.035 ± 0.029 | 1.035 ± 0.029 | 1.035 ± 0.029 | 1.035 ± 0.029
298.15 K | 0.916 ± 0.029 | 0.919 ± 0.029 | 0.92 ± 0.029 | 0.922 ± 0.029 | 0.924 ± 0.029 | 0.926 ± 0.029 | 0.928 ± 0.029 | 0.929 ± 0.029 | 0.93 ± 0.029 | 0.931 ± 0.029
303.15 K | 0.808 ± 0.028 | 0.81 ± 0.028 | 0.813 ± 0.028 | 0.816 ± 0.028 | 0.817 ± 0.028 | 0.82 ± 0.028 | 0.82 ± 0.028 | 0.82 ± 0.028 | 0.822 ± 0.028 | 0.821 ± 0.028
308.15 K | 0.724 ± 0.028 | 0.726 ± 0.028 | 0.727 ± 0.028 | 0.729 ± 0.028 | 0.729 ± 0.028 | 0.73 ± 0.028 | 0.731 ± 0.028 | 0.731 ± 0.028 | 0.732 ± 0.028 | 0.732 ± 0.028
313.15 K | 0.657 ± 0.027 | 0.659 ± 0.027 | 0.662 ± 0.027 | 0.664 ± 0.027 | 0.665 ± 0.027 | 0.667 ± 0.028 | 0.667 ± 0.028 | 0.668 ± 0.028 | 0.669 ± 0.028 | 0.669 ± 0.028
318.15 K | 0.607 ± 0.027 | 0.607 ± 0.027 | 0.609 ± 0.027 | 0.61 ± 0.027 | 0.611 ± 0.027 | 0.613 ± 0.027 | 0.613 ± 0.027 | 0.617 ± 0.027 | 0.618 ± 0.027 | 0.619 ± 0.027

CC(=O)[O-].CCCC[N+](CCCC)(CCCC)CCCC + CCCCN + O
303.15 K
Conditions | viscosity [mPa·s]
x2 = 0, x3 = 0.0291 | 680 ± 230
x2 = 0.0965, x3 = 0.0347 | 390 ± 110
x2 = 0.194, x3 = 0.0301 | 188 ± 33
x2 = 0.3198, x3 = 0.031 | 78 ± 5
x2 = 0.4873, x3 = 0.0253 | 28 ± 2
x2 = 0.6575, x3 = 0.0186 | 16 ± 1
x2 = 0.7882, x3 = 0.0148 | 11 ± 1
x2 = 0.8893, x3 = 0.0119 | 9 ± 1

CC(C)[C@H](N)C(=O)O + CCCCCCCCCCCCCCCC[n+]1ccccc1.O=C([O-])c1ccccc1O + O
Conditions | electrical conductivity [S/m]
313.15 K, x1 = 0.001799, x2 = 0 | 0.00161 ± 9.7e-05

CCCCCCCCCCCCCCCC[n+]1ccccc1.O=C([O-])C(O)c1ccccc1 + CC(C)[C@H](N)C(=O)O + O
electrical conductivity [S/m]
Conditions | 293.15 K | 298.15 K | 303.15 K | 308.15 K | 313.15 K
x1 = 9.1e-07, x2 = 0.0009002 | 0.00089 ± 0.00081 | 0.00101 ± 0.00096 | 0.0011 ± 0.001 | 0.0013 ± 0.0012 | 0.0014 ± 0.0013
x1 = 9.1e-07, x2 = 0.001799 | 0.00133 ± 0.00086 | 0.00151 ± 0.00098 | 0.0017 ± 0.0011 | 0.0019 ± 0.0012 | 0.0021 ± 0.0013
x1 = 1.08e-06, x2 = 0 | 0.00061 ± 0.00098 | 0.00068 ± 0.0011 | 0.00076 ± 0.0012 | 0.00083 ± 0.0013 | 0.0009 ± 0.0015
x1 = 1.98e-06, x2 = 0 | 0.001 ± 0.001 | 0.0012 ± 0.0012 | 0.0013 ± 0.0013 | 0.0014 ± 0.0014 | 0.0016 ± 0.0015
x1 = 2e-06, x2 = 0.001799 | 0.00178 ± 0.00087 | 0.00203 ± 0.00097 | 0.0023 ± 0.0011 | 0.0025 ± 0.0012 | 0.0028 ± 0.0013
x1 = 2.17e-06, x2 = 0.0009002 | 0.0013 ± 0.0011 | 0.0015 ± 0.0011 | 0.0017 ± 0.0012 | 0.0019 ± 0.0013 | 0.0021 ± 0.0021
x1 = 2.88e-06, x2 = 0 | 0.00147 ± 0.00099 | 0.0016 ± 0.0011 | 0.0018 ± 0.0012 | 0.002 ± 0.0014 | 0.0022 ± 0.0015
x1 = 3.09e-06, x2 = 0.001799 | 0.00218 ± 0.0009 | 0.0025 ± 0.001 | 0.0028 ± 0.0011 | 0.0031 ± 0.0013 | 0.0034 ± 0.0014
x1 = 3.26e-06, x2 = 0.0009002 | 0.00176 ± 0.00084 | 0.002 ± 0.00095 | 0.0022 ± 0.001 | 0.0025 ± 0.0012 | 0.0028 ± 0.0013
x1 = 3.96e-06, x2 = 0 | 0.0019 ± 0.001 | 0.0022 ± 0.0011 | 0.0024 ± 0.0013 | 0.0026 ± 0.0014 | 0.0029 ± 0.0015
x1 = 4e-06, x2 = 0.001799 | 0.00257 ± 0.00091 | 0.0029 ± 0.001 | 0.0032 ± 0.0011 | 0.0036 ± 0.0013 | 0.004 ± 0.0014
x1 = 4.53e-06, x2 = 0.0009002 | 0.00226 ± 0.00084 | 0.00256 ± 0.00094 | 0.0029 ± 0.001 | 0.0032 ± 0.0012 | 0.0035 ± 0.0013
x1 = 4.69e-06, x2 = 0 | 0.0023 ± 0.001 | 0.0026 ± 0.0011 | 0.0029 ± 0.0013 | 0.0031 ± 0.0014 | 0.0035 ± 0.0015
x1 = 5.1e-06, x2 = 0.001799 | 0.00299 ± 0.0009 | 0.0034 ± 0.001 | 0.0038 ± 0.0011 | 0.0042 ± 0.0013 | 0.0046 ± 0.0014
x1 = 5.95e-06, x2 = 0 | 0.00281 ± 0.00098 | 0.0032 ± 0.0011 | 0.0035 ± 0.0012 | 0.0038 ± 0.0013 | 0.0042 ± 0.0015
x1 = 5.98e-06, x2 = 0.0009002 | 0.00283 ± 0.00083 | 0.0032 ± 0.00094 | 0.0036 ± 0.001 | 0.004 ± 0.0012 | 0.0044 ± 0.0013
x1 = 6.37e-06, x2 = 0.001799 | 0.00351 ± 0.0009 | 0.004 ± 0.001 | 0.0044 ± 0.0011 | 0.0049 ± 0.0013 | 0.0055 ± 0.0014
x1 = 7.21e-06, x2 = 0 | 0.00341 ± 0.00095 | 0.0038 ± 0.0011 | 0.0042 ± 0.0012 | 0.0046 ± 0.0013 | 0.0051 ± 0.0015
x1 = 7.42e-06, x2 = 0.0009002 | 0.00334 ± 0.00084 | 0.00378 ± 0.00095 | 0.0042 ± 0.0011 | 0.0047 ± 0.0012 | 0.0051 ± 0.0013
x1 = 7.83e-06, x2 = 0.001799 | 0.00405 ± 0.00087 | 0.00458 ± 0.00099 | 0.0051 ± 0.0011 | 0.0057 ± 0.0013 | 0.0063 ± 0.0014
x1 = 8.83e-06, x2 = 0 | 0.00406 ± 0.00092 | 0.0046 ± 0.001 | 0.005 ± 0.0011 | 0.0055 ± 0.0013 | 0.006 ± 0.0014
x1 = 8.87e-06, x2 = 0.0009002 | 0.00384 ± 0.0008 | 0.00435 ± 0.00091 | 0.0049 ± 0.001 | 0.0054 ± 0.0011 | 0.006 ± 0.0013
x1 = 9.28e-06, x2 = 0.001799 | 0.00457 ± 0.00085 | 0.00517 ± 0.00096 | 0.0058 ± 0.0011 | 0.0064 ± 0.0012 | 0.0072 ± 0.0014
x1 = 1.032e-05, x2 = 0.0009002 | 0.00431 ± 0.00078 | 0.00487 ± 0.00089 | 0.0054 ± 0.001 | 0.0061 ± 0.0011 | 0.0067 ± 0.0013
x1 = 1.045e-05, x2 = 0 | 0.00469 ± 0.00089 | 0.0053 ± 0.001 | 0.0058 ± 0.0011 | 0.0065 ± 0.0012 | 0.0071 ± 0.0014
x1 = 1.074e-05, x2 = 0.001799 | 0.00499 ± 0.00082 | 0.00564 ± 0.00092 | 0.0063 ± 0.001 | 0.0071 ± 0.0012 | 0.0079 ± 0.0013
x1 = 1.177e-05, x2 = 0.0009002 | 0.00466 ± 0.00079 | 0.00529 ± 0.00089 | 0.0059 ± 0.001 | 0.0066 ± 0.0011 | 0.0074 ± 0.0013
x1 = 1.201e-05, x2 = 0.001799 | 0.00536 ± 0.0008 | 0.00607 ± 0.00091 | 0.0068 ± 0.001 | 0.0076 ± 0.0011 | 0.0085 ± 0.0013
x1 = 1.207e-05, x2 = 0 | 0.00516 ± 0.00088 | 0.0058 ± 0.001 | 0.0064 ± 0.0011 | 0.0071 ± 0.0012 | 0.0079 ± 0.0014
x1 = 1.322e-05, x2 = 0.0009002 | 0.00502 ± 0.00078 | 0.00569 ± 0.00089 | 0.0064 ± 0.001 | 0.0071 ± 0.0011 | 0.0079 ± 0.0013
x1 = 1.347e-05, x2 = 0.001799 | 0.00572 ± 0.00082 | 0.00647 ± 0.00093 | 0.0073 ± 0.001 | 0.0081 ± 0.0012 | 0.009 ± 0.0013
x1 = 1.351e-05, x2 = 0 | 0.00562 ± 0.00086 | 0.00631 ± 0.00097 | 0.007 ± 0.0011 | 0.0077 ± 0.0012 | 0.0085 ± 0.0013
x1 = 1.431e-05, x2 = 0.0009002 | 0.00533 ± 0.00073 | 0.00604 ± 0.00081 | 0.00678 ± 0.00091 | 0.0076 ± 0.001 | 0.0084 ± 0.0011
x1 = 1.474e-05, x2 = 0.001799 | 0.00607 ± 0.00083 | 0.00687 ± 0.00094 | 0.0077 ± 0.0011 | 0.0086 ± 0.0012 | 0.0096 ± 0.0013
x1 = 1.478e-05, x2 = 0 | 0.00603 ± 0.0009 | 0.0068 ± 0.001 | 0.0075 ± 0.0011 | 0.0083 ± 0.0012 | 0.0092 ± 0.0013
x1 = 1.557e-05, x2 = 0.0009002 | 0.00565 ± 0.00094 | 0.0064 ± 0.00085 | 0.00717 ± 0.00096 | 0.008 ± 0.0011 | 0.0089 ± 0.0014
x1 = 1.583e-05, x2 = 0.001799 | 0.00637 ± 0.00088 | 0.0072 ± 0.00099 | 0.0081 ± 0.0011 | 0.009 ± 0.0012 | 0.01 ± 0.0014
x1 = 1.622e-05, x2 = 0 | 0.00644 ± 0.00092 | 0.0072 ± 0.001 | 0.008 ± 0.0011 | 0.0089 ± 0.0013 | 0.0098 ± 0.0014
x1 = 1.666e-05, x2 = 0.0009002 | 0.006 ± 0.001 | 0.00675 ± 0.00093 | 0.0076 ± 0.001 | 0.0084 ± 0.0012 | 0.0094 ± 0.0015
x1 = 1.766e-05, x2 = 0 | 0.00687 ± 0.00093 | 0.0077 ± 0.001 | 0.0085 ± 0.0012 | 0.0094 ± 0.0013 | 0.0104 ± 0.0014
